Measurements taken from PubChem BioAssay (NCI).
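Step 1: Grow cells in 96-well plates. Step 2: Expose to compound for 48 hours at 5 concentrations. Step 3: Interpolate endpoints linearly; if unreached, use highest concentration. GI50 = concentration required for 50% inhibition of growth. Definition used: TGI = concentration required for complete inhibition of growth.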

Tests used:
Test in all cases: NCI anticancer screen, dose series, 48 h
[1] = tested on: SK-MEL-5 melanoma
[2] = tested on: NCI-H226 lung
[3] = tested on: MCF7 breast
[4] = tested on: MALME-3M melanoma
[5] = tested on: LOX IMVI melanoma
[6] = tested on: RPMI-8226 leukemia
[7] = tested on: OVCAR-8 ovarian
[8] = tested on: PC-3 prostate
[9] = tested on: SK-MEL-2 melanoma
[10] = tested on: SNB-19 CNS
[11] = tested on: SR leukemia
[12] = tested on: EKVX NSCLC
[13] = tested on: NCI-H460 lung
[14] = tested on: BT-549 breast
[15] = tested on: NCI-H23 lung
[16] = tested on: HCC-2998 colon
[17] = tested on: ACHN renal
[18] = tested on: SNB-75 CNS
[19] = tested on: SK-MEL-28 melanoma
[20] = tested on: SN12C renal
[21] = tested on: HS 578T breast
[22] = tested on: MOLT-4 leukemia
[23] = tested on: DU-145 prostate
[24] = tested on: A498 renal
[25] = tested on: M14 melanoma
[26] = tested on: SW-620 colon
[27] = tested on: A549 NSCLC
[28] = tested on: KM12 colon
[29] = tested on: MDA-MB-435

## Oc1ccc(CSc2nnc(-c3ccncc3)n2-c2ccccc2)c2cccnc12
[1]
  GI50: 0.761 µM
  TGI: 5.6 µM
[2]
  GI50: 3.49 µM
  TGI: > 100 µM
[3]
  GI50: 0.357 µM
  TGI: > 100 µM
[4]
  GI50: 1.05 µM
  TGI: > 81.5 µM
[5]
  GI50: 0.471 µM
  TGI: > 27.9 µM
[6]
  GI50: 0.391 µM
  TGI: > 100 µM
[7]
  GI50: 0.493 µM
  TGI: > 100 µM
[8]
  GI50: 0.735 µM
  TGI: > 100 µM
[9]
  GI50: 0.628 µM
  TGI: > 100 µM
[10]
  GI50: 0.453 µM
  TGI: > 89.2 µM
[11]
  GI50: 0.396 µM
  TGI: > 100 µM
[12]
  GI50: 1.4 µM
  TGI: 21.1 µM
[13]
  GI50: 0.375 µM
  TGI: 14.4 µM
[14]
  GI50: 0.596 µM
  TGI: > 63.1 µM
[15]
  GI50: 0.433 µM
  TGI: > 46.5 µM
[16]
  GI50: 3.14 µM
  TGI: > 100 µM
[17]
  GI50: 0.794 µM
  TGI: > 28.4 µM
[18]
  GI50: 0.642 µM
  TGI: 43 µM
[19]
  GI50: 1.79 µM
  TGI: > 100 µM
[20]
  GI50: 0.385 µM
  TGI: > 100 µM
[21]
  GI50: 0.473 µM
  TGI: > 84.8 µM
[22]
  GI50: 0.72 µM
  TGI: > 100 µM
[23]
  GI50: 0.686 µM
  TGI: > 100 µM
[24]
  GI50: 2.6 µM
  TGI: 8.64 µM
[25]
  GI50: 0.765 µM
  TGI: 5.96 µM
[26]
  GI50: 0.542 µM
  TGI: > 100 µM
[27]
  GI50: 1.75 µM
  TGI: > 100 µM
[28]
  GI50: 2.27 µM
  TGI: > 100 µM
[29]
  GI50: 0.462 µM
